# Reference: US20220144850A1, “INDOLO HEPTAMYL OXIME ANALOGUE AS PARP INHIBITOR” (Chia Tai Tianqing Pharmaceutical Group Co., Ltd., priority 2019, published 2022)
# Experiments:
# CYP2C19 = molecular target: T1, CYP2C19 (Homo sapiens, UniProt P33261); test: Inhibition against cytochrome P450 isoenzyme, human liver microsomes; assay type: in vitro ADME
# T1 construct: a human liver microsome solution; from tissue; host or cells: human liver microsomes
# Procedure: (§1) Experimental Example 6: Study on Inhibition Against Cytochrome P450 Isoenzyme
# (§2) The inhibition of the test compounds against different subtypes of the human cytochrome P450 isoenzyme was determined. Test compounds, a standard inhibitor (100×final concentration) and a mixed substrate working solution were prepared; the microsomes frozen in a refrigerator at −80° C. were taken out and thawed. 2 μL of a solution of the test compound and the standard inhibitor was added to corresponding wells, and 2 μL of a corresponding solvent was added to a non-inhibitor control (NIC) well and a blank control (Blank) well; then, 20 μL of a solution of mixed substrate was added to corresponding wells except for the Blank well (adding 20 μL of PB to the Blank well); a human liver microsome solution (marking the date after use and immediately putting back to a refrigerator) was prepared and then added to all wells at 158 μL per well; the sample plate was put into a 37° C. water bath for pre-incubation, and then a coenzyme factor (NADPH) solution was prepared; after 10 min, the NADPH solution was added to all the wells at 20 μL per well, and the sample plate was shaken to mix the mixture well and then incubated in a 37° C. water bath for 10 min; at corresponding time points, 400 μL of cold acetonitrile solution (internal standard: 200 ng/mL tolbutamide and labetalol) was added to stop the reaction; after being mixed well, the mixture in the sample plate was centrifuged at 4,000 rpm for 20 min to precipitate proteins; 200 μL of supernatant was collected and added into 100 μL of water, and the mixture was mixed well and then assayed by LC/MS/MS.
# CYP1A2 = molecular target: T2, CYP1A2 (Homo sapiens, UniProt P05177); test: as above; assay type: in vitro ADME
# T2 construct: a human liver microsome solution; from tissue; host or cells: human liver microsomes
# T2 sequence (P05177 1-516): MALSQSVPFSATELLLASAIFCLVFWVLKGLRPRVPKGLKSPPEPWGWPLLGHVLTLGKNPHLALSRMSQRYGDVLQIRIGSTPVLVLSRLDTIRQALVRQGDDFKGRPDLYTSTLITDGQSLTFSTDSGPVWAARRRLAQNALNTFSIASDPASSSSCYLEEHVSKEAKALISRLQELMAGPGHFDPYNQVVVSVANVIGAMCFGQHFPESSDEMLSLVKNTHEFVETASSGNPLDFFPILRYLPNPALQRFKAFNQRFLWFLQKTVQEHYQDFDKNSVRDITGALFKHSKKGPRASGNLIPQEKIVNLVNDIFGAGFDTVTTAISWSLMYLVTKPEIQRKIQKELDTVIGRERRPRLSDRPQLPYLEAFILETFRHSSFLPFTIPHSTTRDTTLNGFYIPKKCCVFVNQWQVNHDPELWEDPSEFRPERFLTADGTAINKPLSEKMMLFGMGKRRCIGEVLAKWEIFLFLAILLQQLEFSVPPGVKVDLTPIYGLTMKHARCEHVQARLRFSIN
# Procedure: as §1, §2
# CYP2D6 = molecular target: T3, CYP2D6 (Homo sapiens, UniProt P10635); test: as above; assay type: in vitro ADME
# T3 construct: a human liver microsome solution; from tissue; host or cells: human liver microsomes
# T3 sequence (P10635 whole entry): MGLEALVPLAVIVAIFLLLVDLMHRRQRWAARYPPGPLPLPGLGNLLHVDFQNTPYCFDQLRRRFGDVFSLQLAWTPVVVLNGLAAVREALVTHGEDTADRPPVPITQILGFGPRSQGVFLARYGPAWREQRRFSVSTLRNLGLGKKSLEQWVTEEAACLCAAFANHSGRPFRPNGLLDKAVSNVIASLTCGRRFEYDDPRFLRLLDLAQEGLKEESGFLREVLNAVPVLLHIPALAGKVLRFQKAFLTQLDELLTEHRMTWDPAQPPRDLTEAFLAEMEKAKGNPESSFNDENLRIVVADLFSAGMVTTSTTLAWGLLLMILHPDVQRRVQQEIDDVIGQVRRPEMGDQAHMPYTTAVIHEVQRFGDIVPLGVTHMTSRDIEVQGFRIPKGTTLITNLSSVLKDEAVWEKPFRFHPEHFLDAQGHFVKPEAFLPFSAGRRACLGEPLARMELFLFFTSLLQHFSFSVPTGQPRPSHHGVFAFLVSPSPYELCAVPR
# Procedure: as §1, §2
# [1] = system: human breast cancer MDA-MB-436 cells; test: In vivo pharmacodynamic study, subcutaneous xenograft tumor model of MDA-MB-436 cells; parameters: species or system BALB/c nude mouse; conditions: for TGI: day 27; for Tumor volume (day 27): mean ± SEM
# Source text: Experimental Example 9: In Vivo Pharmacodynamic Study of Compounds in Subcutaneous Xenograft Tumor BALB/c Nude Mouse Model of Human Breast Cancer MDA-MB-436 Cells
# Experimental objective: to study the efficacy in vivo of the test compound in subcutaneous xenograft tumor BALB/c nude mouse model of human breast cancer MDA-MB-436 cells.
# Experimental materials: week age and body weight: female BALB/c nude mice, 6-8 weeks old, 18-22 g of body weight. The experiment started after 3-7-days of adaptive feeding. The animal information card of each cage provides the following information about the animals: number, sex, strain, receiving date, administration regime, experiment number, group and starting date of the experiment. All the cages, padding and drinking water were sterilized before use. The cages, feed and drinking water were changed twice a week. The experimental animals were identified with ear tags. Test samples: Example 24_A and Example 25_A. All the test samples were prepared with 10% DMSO+90% (20% HP-β-CD) as vehicle, and the blank control group was administered with the vehicle alone.
# 1. Cell culturing. Human breast cancer MDA-MB-436 cells (ATCC, Manassas, Va., catalog No.: HTB-130) were cultured in an RPMI-1640 culture medium containing 10% fetal bovine serum and 1% Anti-anti through in vitro monolayer culture in an incubator at 37° C./5% CO2. The cells were digested with trypsin-EDTA twice a week for passaging as per conventional practice. At a cell saturation of 80%-90% and a required number, the cells were collected, counted and inoculated. 2. Tumor cell inoculation (tumor inoculation). 0.2 mL (1×10^7 cells) of MDA-MB-436 cells (along with matrigel in a volume ratio of 1:1) was subcutaneously inoculated on the right back of each mouse, and the mice were randomly grouped when the average tumor volume was 318 mm^3. 3. Daily observation of experimental animals: animals were monitored daily for health and death, and routine examinations include observation of the effect of tumor growth and drug treatment on the daily performance of the animals, such as behavioral activities, food and water intake, weight changes, appearance, or other abnormal conditions. 4. Tumor measurements and experimental indices: the experimental indices were to investigate whether the tumor growth was inhibited, the tumor growth was delayed or the tumor was cured. Tumor diameters were measured twice weekly using a vernier caliper. The tumor volume was calculated using the following formula: V=0.5a×b^2, where a and b represent the long diameter and short diameter of the tumor, respectively. The anti-tumor therapeutic effect of the compound was evaluated by TGI (%) or relative tumor proliferation rate T/C (%). TGI (%) refers to the rate of tumor growth inhibition. Calculation of TGI (%): TGI (%)=[(1−(average tumor volume at the end of administration in a treatment group−average tumor volume at the start of administration of the treatment group))/(average tumor volume at the end of treatment of the solvent control group−average tumor volume at the start of treatment of the solvent control group)]×100%. The calculation formula for relative tumor proliferation rate T/C (%) was as follows: T/C (%)=TRTV/CRTV×100% (TRTV: RTV of treatment group; CRTV: RTV of negative control group). Relative tumor volume (RTV) was calculated based on the results of tumor measurement. The calculation formula was: RTV=Vt/V0, wherein V0 was the average tumor volume measured at the time of grouping and administration (i.e., d0), Vt was the average tumor volume at a certain measurement, and the data of TRTV and CRTV used were obtained on the same day. 5. Statistical analysis: including mean and standard error of mean (SEM) of tumor volume at each time point for each group. […] The experimental data were analyzed using a one-way ANOVA method and a Games-Howell method. All data analysis was performed with SPSS 17.0. p<0.05 was defined as a significant difference.
# T1 sequence (P33261 whole entry): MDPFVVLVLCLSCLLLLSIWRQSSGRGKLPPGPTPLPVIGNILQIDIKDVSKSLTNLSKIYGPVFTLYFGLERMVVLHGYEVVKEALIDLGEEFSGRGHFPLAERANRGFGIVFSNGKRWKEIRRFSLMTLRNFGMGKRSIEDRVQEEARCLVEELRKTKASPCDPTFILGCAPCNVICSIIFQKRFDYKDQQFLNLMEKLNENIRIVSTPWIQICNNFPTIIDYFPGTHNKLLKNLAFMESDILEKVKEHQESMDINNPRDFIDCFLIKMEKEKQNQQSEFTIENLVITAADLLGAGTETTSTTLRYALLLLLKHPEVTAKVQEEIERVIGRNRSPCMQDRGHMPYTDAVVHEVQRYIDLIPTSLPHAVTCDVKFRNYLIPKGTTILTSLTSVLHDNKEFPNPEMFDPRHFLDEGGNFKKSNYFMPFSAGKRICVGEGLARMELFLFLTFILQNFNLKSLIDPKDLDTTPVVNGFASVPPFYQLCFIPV
Structure (SMILES),IC50 (CYP2C19) [µM],IC50 (CYP1A2) [µM],IC50 (CYP2D6) [µM],TGI ([1]; 12.5 mg/kg PO QD × 28 days) [%],Tumor volume (day 27) ([1]; 12.5 mg/kg PO QD × 28 days) [mm^3],TGI ([1]; 25 mg/kg PO QD × 28 days) [%],Tumor volume (day 27) ([1]; 25 mg/kg PO QD × 28 days) [mm^3],TGI ([1]; 50 mg/kg PO QD × 28 days) [%],Tumor volume (day 27) ([1]; 50 mg/kg PO QD × 28 days) [mm^3]
"O=C1NOCc2c(-c3ccc(C4CCCN4)cc3)[nH]c3cc(F)cc1c23 (single isomer, unassigned) [Example 24_A]",17.2,29.5,6.98,–,–,–,–,–,–
CC1(c2ccc(-c3[nH]c4cc(F)cc5c4c3CONC5=O)cc2)CCCN1 (stereo not drawn) [Example 25_A],8.33,> 50,11.6,95.34,377 ± 149,114.69,132 ± 32,117.86,91 ± 14
O=C1NOCc2c(-c3ccc(C4CCCN4)c(F)c3)[nH]c3cccc1c23 (stereo not drawn) [Example 11_A],15.5,> 50,19.2,–,–,–,–,–,–
"CC1(c2ccc(-c3[nH]c4cc(F)cc5c4c3CONC5=O)cc2F)CCCN1 (single isomer, unassigned) [Example 26_A]",3.31,> 50,20.2,–,–,–,–,–,–
